According to patent publication US12612392B2, “Compound, pharmaceutical compositions containing same, synthesis method therefor and use thereof” (SHENZHEN ZHONGGE BIOLOGICAL TECHNOLOGY CO., LTD., priority 2022, dated 2026):

test system: not listed separately; test: Cell membrane permeability (A to B / B to A, efflux ratio); format: in vitro ADME; settings: not given
Method: The test compounds were diluted from 10 mM stock solutions to a concentration of 10 μM using the transport buffer (HBSS+BSA) and applied to the apical or basolateral side of the cell monolayer. After the incubation at 37° C., 5% CO2 and 95% relative humidity for 120 minutes, the permeability of the test compounds in the A to B direction or the B to A direction was tested in duplicate. In addition, the efflux ratio of each compound was determined. The test substances and reference substances were quantitatively analyzed by the LC-MS/MS method based on the analyte/IS peak area ratio.

Row | efflux ratio at 120 min, 10 µM | Structure (SMILES)
1 | 44.1 | C[C@H]1O[C@@H](O[C@H]2[C@@H](O)C[C@H](O[C@H]3[C@@H](O)C[C@H](O[C@H]4CC[C@@]5(C)[C@H](CC[C@@H]6[C@@H]5C[C@@H](O)[C@]5(C)[C@@H](C7=CC(=O)OC7)CC[C@]65O)C4)O[C@@H]3C)O[C@@H]2C)C[C@H](O)[C@@H]1O [Digoxin, reference compound]

test system: HEK293T/17-ATF4 uORF-Luc-Puro monoclonal cells; test: Cell activity test: ATF4 luciferase reporter, thapsigargin-induced stress; format: cell-based; settings: Homo sapiens, HEK-293T; ATF4 reporter expression, 50 nM thapsigargin, 6 hours
Text: The ATF4 luciferase reporter plasmid consists of two parts, i.e., the 5′ untranslated region sequence of the ATF4 gene and the luciferase coding sequence. Specifically, the ATF4 5′ untranslated region sequence (NCBI database number BC022088.2) containing two upstream open reading frames (uORFs), and the firefly luciferase encoding gene were cloned into the pLVX-Puro vector (YouBio, VT1465). The lentivirus packaging plasmids were psPAX2 (YouBio, VT1444) and pMD2.G (YouBio, VT1443). HEK293T/17 cells were transfected with the above three plasmids simultaneously using X-tremeGENE 9 DNA transfection reagent, and after 48 hours, a culture medium containing lentivirus was collected. HEK293T/17 cells transduced with the virus were screened with 1 μg/mL puromycin, and then monoclonal cells were obtained by limiting dilution.
By using this cell line and the cold fluorescence readings, the translational regulation of ATF4 can be detected, and the activity of the eIF2B activator can be tested. The specific experimental process is as follows: 6000 HEK293T/17-ATF4 uORF-Luc-Puro monoclonal cells were plated in a 384-well plate and allowed to adhere overnight. The test compounds were dissolved in DMSO and added together with 50 nM thapsigargin to the cell culture medium and incubated for 6 hours, wherein the thapsigargin was used to cause cellular stress and upregulate the protein translation of ATF4. Six hours after the addition, the cells were lysed using the One-Glo Luciferase Assay Kit (Promega #E6120), and then the cold fluorescence values were read using the LUM program of the EnVision 2104 plate reader.
The ATF4 reporter expression % was calculated as follows:
[formula] • ave_vc: average signal value of negative control • ave_pc: average signal value of positive control • ave_sample: average signal value of sample
The dose-response curves were fitted, and the EC50 values were calculated.
The nonlinear regression log (inhibitor) vs. response—variable slope (four parameters) method of GraphPad 9 software was used to fit the corresponding relationship between the ATF4 reporter expression % and the compound concentration.
X-axis: log value of compound concentration; Y-axis: ATF4 reporter expression %; Top: evaluation of upper asymptote of curve; Bottom: evaluation of lower asymptote of curve; Hillslope: slope of the fitted curve.

Row | Structure (SMILES) | EC50
2 | COC1CN(c2nnc(C3CCN(NC(=O)COc4ccc(Cl)c(F)c4)CC3)o2)C1 [Compound 1] | 10 to 100 nM
3 | COC1CN(c2nnc(C3CCC(NC(=O)COc4ccc(Cl)c(F)c4)CC3)o2)C1 (stereo not drawn) [Compound 2] | 10 to 100 nM
4 | O=C(COc1ccc(Cl)c(F)c1)NC12CCC(c3nnc(N4CC(OC(F)(F)F)C4)o3)(CC1)CC2 [Compound 3] | 1 to 10 nM
5 | O=C(COc1ccc(Cl)c(F)c1)NC12CCC(c3nnc(N4CC(OC(F)(F)F)C4)o3)(CC1)CC2O (stereo not drawn) [Compound 4] | < 1 nM
6 | O=C(COc1ccc(Cl)c(F)c1)NN1CCC(c2nnc(N3CC(OC(F)(F)F)C3)o2)CC1 [Compound 7] | < 1 nM
7 | O=C(COc1ccc(Cl)c(F)c1)NC12CCC(c3nnc(N4CC5(C4)CC(F)(F)C5)o3)(CC1)CC2 [Compound 8] | 10 to 100 nM
8 | CP(C)(=O)C1CN(c2nnc(C34CCC(NC(=O)COc5ccc(Cl)c(F)c5)(CC3)CC4)o2)C1 [Compound 9] | > 100 nM
9 | O=C(COc1ccc(Cl)c(F)c1)NC12CCC(c3nnc(N4CC(OC(F)(F)C(F)(F)F)C4)o3)(CC1)CC2 [Compound 10] | 1 to 10 nM
10 | O=C(COc1ccc(Cl)c(F)c1)N[C@H]1CC[C@H](c2nnc(NC3CC(C(F)(F)F)C3)o2)CC1 (stereo partly drawn) [Compound 11] | 10 to 100 nM
11 | Fc1cc(OCC(=S)N[C@H]2CC[C@H](c3nnc(N4CC(OC(F)(F)F)C4)o3)CC2)ccc1Cl [Compound 12] | 1 to 10 nM
12 | CN(c1nnc([C@H]2CC[C@H](NC(=O)COc3ccc(Cl)c(F)c3)CC2)o1)C1CC(C(F)(F)F)C1 (stereo partly drawn) [Compound 14] | 10 to 100 nM
13 | O=C(COc1ccc(Cl)cc1)N[C@H]1CC[C@H](c2nnc(N3CC(OC(F)(F)F)C3)o2)CC1 [Compound 15] | < 1 nM
14 | O=C(COc1ccc(Cl)c(F)c1)N[C@@H]1CC[C@@H](c2nnc(N3CC(OC(F)(F)F)C3)o2)OC1 [Compound 16] | 1 to 10 nM
15 | O=C(CO[C@H]1C[C@@H](OC(F)(F)F)C1)N[C@H]1CC[C@H](c2nnc(N3CC(OC(F)(F)F)C3)o2)CC1 [Compound 17] | 10 to 100 nM
16 | O=C(COc1ccc(Cl)cn1)N[C@H]1CC[C@H](c2nnc(N3CC(OC(F)(F)F)C3)o2)CC1 [Compound 18] | 10 to 100 nM
17 | O=C(COc1ccc(Cl)c(F)c1)N[C@H]1CC[C@H](c2nnc(N3CC(OC(F)F)C3)o2)CC1 [Compound 19] | 1 to 10 nM
18 | O=C(COc1ccc(F)cc1)N[C@H]1CC[C@H](c2nnc(N3CC(OC(F)(F)F)C3)o2)CC1 [Compound 21] | 10 to 100 nM
19 | O=C(COc1ccccc1Cl)N[C@H]1CC[C@H](c2nnc(N3CC(OC(F)(F)F)C3)o2)CC1 [Compound 22] | > 100 nM
20 | O=C(COc1cccc(Cl)c1)N[C@H]1CC[C@H](c2nnc(N3CC(OC(F)(F)F)C3)o2)CC1 [Compound 23] | 10 to 100 nM
21 | O=C(COc1cccc(F)c1)N[C@H]1CC[C@H](c2nnc(N3CC(OC(F)(F)F)C3)o2)CC1 [Compound 24] | 10 to 100 nM
22 | O=C(COc1ccc(F)c(Cl)c1)N[C@H]1CC[C@H](c2nnc(N3CC(OC(F)(F)F)C3)o2)CC1 [Compound 25] | 1 to 10 nM
23 | O=C(COc1ccc(Cl)c(Br)c1)N[C@H]1CC[C@H](c2nnc(N3CC(OC(F)(F)F)C3)o2)CC1 [Compound 26] | < 1 nM
24 | O=C(COc1ccc(Cl)cc1Cl)N[C@H]1CC[C@H](c2nnc(N3CC(OC(F)(F)F)C3)o2)CC1 [Compound 27] | 10 to 100 nM
25 | O=C(COc1ccc(Cl)c(Cl)c1)N[C@H]1CC[C@H](c2nnc(N3CC(OC(F)(F)F)C3)o2)CC1 [Compound 28] | < 1 nM

Row | Structure (SMILES) | EC50
26 | O=C(COc1ccccc1F)N[C@H]1CC[C@H](c2nnc(N3CC(OC(F)(F)F)C3)o2)CC1 [Compound 29] | > 100 nM
27 | O=C(COc1ccc(F)cc1F)N[C@H]1CC[C@H](c2nnc(N3CC(OC(F)(F)F)C3)o2)CC1 [Compound 30] | > 100 nM
28 | O=C(COc1ccc(F)cc1Cl)N[C@H]1CC[C@H](c2nnc(N3CC(OC(F)(F)F)C3)o2)CC1 [Compound 31] | > 100 nM
29 | O=C(COc1cccc(Cl)c1Cl)N[C@H]1CC[C@H](c2nnc(N3CC(OC(F)(F)F)C3)o2)CC1 [Compound 32] | > 100 nM
30 | O=C(COc1ccc(Cl)cc1F)N[C@H]1CC[C@H](c2nnc(N3CC(OC(F)(F)F)C3)o2)CC1 [Compound 33] | 1 to 10 nM
31 | O=C(COc1ccc(F)c(F)c1)N[C@H]1CC[C@H](c2nnc(N3CC(OC(F)(F)F)C3)o2)CC1 [Compound 34] | 1 to 10 nM
32 | O=C(COc1ncc(Cl)cn1)N[C@H]1CC[C@H](c2nnc(N3CC(OC(F)(F)F)C3)o2)CC1 [Compound 35] | > 100 nM
33 | O=C(N[C@H]1CC[C@H](c2nnc(N3CC(OC(F)(F)F)C3)o2)CC1)c1nc(Cl)c[nH]1 [Compound 41] | > 100 nM
34 | Cc1csc(C(=O)N[C@H]2CC[C@H](c3nnc(N4CC(OC(F)(F)F)C4)o3)CC2)n1 [Compound 42] | > 100 nM
35 | O=C(N[C@H]1CC[C@H](c2nnc(N3CC(OC(F)(F)F)C3)o2)CC1)c1cc(Cl)c[nH]1 [Compound 43] | 10 to 100 nM
36 | O=C(N[C@H]1CC[C@H](c2nnc(N3CC(OC(F)(F)F)C3)o2)CC1)c1ccc2cc(Cl)ccc2n1 [Compound 44] | 1 to 10 nM
37 | O=C(N[C@H]1CC[C@H](c2nnc(N3CC(OC(F)(F)F)C3)o2)CC1)c1cnc(C(F)F)cn1 [Compound 45] | > 100 nM
38 | O=C(N[C@H]1CC[C@H](c2nnc(N3CC(OC(F)(F)F)C3)o2)CC1)c1ccc2c(c1)CCCO2 [Compound 46] | > 100 nM
39 | O=C(COc1cc(F)c(Cl)c(F)c1)N[C@H]1CC[C@H](c2nnc(N3CC(OC(F)(F)F)C3)o2)CC1 [Compound 47] | 1 to 10 nM
40 | O=C(COc1cc(F)c(Cl)cc1F)N[C@H]1CC[C@H](c2nnc(N3CC(OC(F)(F)F)C3)o2)CC1 [Compound 48] | 1 to 10 nM
41 | O=C(COc1cc(F)c(Cl)cc1Cl)N[C@H]1CC[C@H](c2nnc(N3CC(OC(F)(F)F)C3)o2)CC1 [Compound 49] | > 100 nM
42 | O=C(COc1ccc(Cl)c(F)c1F)N[C@H]1CC[C@H](c2nnc(N3CC(OC(F)(F)F)C3)o2)CC1 [Compound 50] | 1 to 10 nM
43 | C[C@@H]1[C@@H](OC(F)(F)F)CN1c1nnc([C@H]2CC[C@H](NC(=O)COc3ccc(Cl)c(F)c3)CC2)o1 [Compound 51-1] | 10 to 100 nM
44 | C[C@@H]1[C@H](OC(F)(F)F)CN1c1nnc([C@H]2CC[C@H](NC(=O)COc3ccc(Cl)c(F)c3)CC2)o1 [Compound 51-2] | > 100 nM
45 | Nc1cc(Cl)ccc1OCC(=O)N[C@H]1CC[C@H](c2nnc(N3CC(OC(F)(F)F)C3)o2)CC1 [Compound 52] | > 100 nM
46 | O=C(COc1ncc(C(F)(F)F)s1)N[C@H]1CC[C@H](c2nnc(N3CC(OC(F)(F)F)C3)o2)CC1 [Compound 53] | > 100 nM
47 | O=C(COc1ccc(Cl)c(F)c1)N[C@H]1CC[C@H](c2nnc(N3CC(OC(F)(F)F)C3)o2)C[C@H]1O [Compound 86] | 1 to 10 nM
48 | O=C(CO[C@H]1CC[C@H](c2nnc(N3CC(OC(F)(F)F)C3)o2)CC1)Nc1ccc(Cl)c(F)c1 [Compound 90] | 1 to 10 nM
